Where “and” joins values, the source holds several entries; their conditions need not be identical. Equal entries are not always repeated. Where two headings read alike, the source gives them in different places.
Experiments:
H9 cells [1] = experiment: qHTS for survival of dissociated H9 cells (CellTiter-Glo, 24 hours after seeding); type: cell-based, human
Excerpt: FIG. 2 schematically illustrates qHTS procedure.
All the screed compounds were received pre-plated at the pre-determined concentrations. […] Curve classification is explained in Huang et al. “Chemical genomics profiling of environmental chemical modulation of human nuclear receptors” Environ. Health. Perspect.

H9 cells [2] = experiment: Combinatorial matrix screening for synergistic effects on cell survival; type: cell-based, human; conditions: 10×10 matrix, normalized to 10 μM Y-27632
Experimental: Combinatorial matrix screening was performed to identify the compounds with synergistic effects on cell survival. Focusing on the compounds with different mechanisms of action, 29 compounds were selected for combinational matrix screening, resulting in 812 sets of 10×10 checkerboard matrix experiments (data not shown), four of which are illustrated in FIG. 9. The concentrations of the compounds for combinational matrix screening were optimized based on the slope and potency (AC50) derived from single-agent qHTS dose-response curves, so that the matrix screen covered a wide range of biological effect observed in the cell viability assay. […] The numerals in each 10×10 matrix show the maximum survival achieved with the indicated combinations or single agents. The maximum survival achieved by each pair of compounds is represented by the highest numbers in each 10×10 matrix, the examples of which are shown in FIG. 9. The bottom matrices depict the synergy matrix calculated using highest-single agent (HSA) model. The HSA synergy assesses the pro-survival benefit of compound combination compared to single agent alone, which was computed as the difference between cell survival out of combination and that from the best single agent at each tested concentration. Synergy is defined as the difference between the combination and max response with single agent (synergy=combination max (single agent A, single agent B).

[3] = H9 cell survival normalized to 10 μM Y-27632 (taken to be 100%)
[4] = H9 cell survival, normalized to 10 μM Y-27632
[5] = H9 cell survival, CellTiter-Glo 24 hours after seeding; read-out: AC50 (concentration at 50% efficacy)
[6] = Homo sapiens, H9, 24 h, H9 cell survival normalized to 10 μM Y-27632 (taken to be 100%); read-out: Max (maximum activity value from all tested concentrations)
[7] = Homo sapiens, H9, 24 h, H9 cell survival, normalized to 10 μM Y-27632; read-out: Efficacy (activity range between predicted activities at zero and infinite doses, Hill equation)
[8] = Homo sapiens, H9, 24 h, H9 cell survival, CellTiter-Glo 24 hours after seeding; read-out: AC50 (concentration at 50% efficacy)
[9] = Homo sapiens, H9, 24 h, read-out: Efficacy (activity range between predicted activities at zero and infinite doses, Hill equation)
[10] = Homo sapiens, H9, 24 h, read-out: Max (maximum activity value from all tested concentrations)

SMILES	Max (maximum activity value from all tested concentrations) (H9 cells [1]; [3])	Efficacy (activity range between predicted activities at zero and infinite doses, Hill equation) (H9 cells [1]; [4])	AC50 (H9 cells [1]; [5]) [µM]	further results
Cc1ccc2c(c1)C(=O)C1(O)CCN(c3ccccc3)C1=N2 (single isomer, unassigned; (-)) [(−)-Blebbistatin]	90.71% and 107.8%	105 and 96		synergy with Chroman 1 on cell survival (HSA model) (H9 cells [2]): lacking synergy
Brc1c(Br)c(Br)c2n[nH]nc2c1Br [TBB]	28.55%	33.7	32.6	
Nc1nc2nc[nH]c2c(=S)[nH]1 [Tioguanine]				Emax (H9 cells [1]; [6]): 21.3%; Emax (H9 cells [1]; [7]): 0%
CC(C)[C@H](NC(=O)c1ccc2ccccc2n1)C(=O)N[C@@H](CC(=O)O)C(=O)COc1c(F)cccc1F [Q-VD-OPh hydrate]	93.54%	85.9	1.17	synergy with Chroman 1 on cell survival (HSA model) (H9 cells [2]): synergistic with Chroman 1
COc1ccccc1-c1c[nH]c2ncc(-c3cncc(C(=O)N(C)C)c3)cc12 [PPY A]	37.42%	41.9	2.93	
Cl.O=c1[nH]c([C@@H]2CCCN2)nc2c1oc1ccc(Cl)cc12 [BMS-863233 (XL-413)]	22.03%	28.3	26.1	
CC1=NN(c2ccccc2)C(=O)C1 [Edaravone]				Emax (H9 cells [1]; [6]): 21%; AC50 (H9 cells [1]; [8]): 0.521 µM; Emax (H9 cells [1]; [7]): 11%
O=C(NCc1cccc(O)c1)Nc1nc(-c2ccncc2)cs1 [RKI-1447]	103.2%	106	0.083	
C[C@]12O[C@H](C[C@]1(O)CO)n1c3ccccc3c3c4c(c5c6ccccc6n2c5c31)CNC4=O [Lestaurtinib]				AC50 (H9 cells [1]; Homo sapiens, H9, 24 h, read-out: AC50 (concentration at 50% efficacy)): 1.18 µM; Emax (H9 cells [1]; [9]): 7.59%; Emax (H9 cells [1]; [10]): 53%
CC(N/C(=N\C#N)Nc1ccncc1)C(C)(C)C (centres unmarked) [Pinacidil]				AC50 (H9 cells [1]; [8]): 21.1 µM; Emax (H9 cells [1]; [9]): 86.4%; Emax (H9 cells [1]; [10]): 83.1%
CCCCC1C(=O)N(c2ccccc2)N(c2ccc(O)cc2)C1=O (centres unmarked) [OXYPHENBUTAZONE]	22.37%	25.7	23.3	
CC(=O)O[C@H]1C(=O)[C@]2(C)C(O)C[C@H]3OC[C@@]3(OC(C)=O)[C@H]2[C@H](OC(=O)c2ccccc2)[C@]2(O)C[C@H](O)C(C)=C1C2(C)C (some centres unmarked) [NCGC00384655-01]	23.91%	29.1	1.74	
CC1CN(S(=O)(=O)c2cccc3cnccc23)CCN1.Cl.Cl (centres unmarked) [1-05-IsoquinolinylstilfonyI)-3-methylpiperazine dihydroehloride]	100.6%	102	20.6	
CC1=C(C(=O)Nc2cc3cn[nH]c3cc2F)C(c2ccc(Cl)cc2F)N=C(c2ccnc(Cl)c2)N1 (centres unmarked) [GSK-25]	121.1% and 113.3%	118 and 113		
C[C@@H]1O[C@@H](O[C@H]2[C@H](O[C@H]3[C@H](O[C@H]4CC[C@@]5(C)C(CC[C@]6(C)C5CC=C5[C@@H]7CC(C)(C(=O)O)C[C@@H](O)[C@]7(C)CC[C@]56C)[C@@]4(C)CO)O[C@H](C(=O)O)[C@@H](O)[C@@H]3O)O[C@H](CO)[C@H](O)[C@@H]2O)[C@H](O)[C@H](O)[C@H]1O (some centres unmarked) [NCGC00385739-01]	23.02%	24.5	3.13	
CCn1c(-c2nonc2N)nc2cnc(Oc3cccc(NC(=O)c4ccc(OCCN5CCOCC5)cc4)c3)cc21 [GSK-269962A]	133.3%	106	11.8	
CCn1c(-c2nonc2N)nc2c(C#CCO)ncc(OCCCN)c21 [AKT Kinase Inhibitor]	46.89%	0		
O=C(Nc1ccc2[nH]ncc2c1)C1CCC1 [Rhodblock 6]	61.61%	67.9	23.3	

SMILES	Max (maximum activity value from all tested concentrations) (H9 cells [1]; [3])	Efficacy (activity range between predicted activities at zero and infinite doses, Hill equation) (H9 cells [1]; [4])	AC50 (H9 cells [1]; [5]) [µM]	further results
CN1CCN(Cc2ccc(-c3cnc4[nH]cc(-c5ccc6[nH]ccc6c5)c4c3)cc2)CC1 [URMC-099]				Emax (H9 cells [1]; [6]): 27.1%; AC50 (H9 cells [1]; [8]): 5.21 µM; Emax (H9 cells [1]; [7]): 33.6%
CC1=C(C(=O)Nc2cc3cn[nH]c3cc2F)C(c2ccc(C(F)(F)F)cc2)CC(=O)N1 (centres unmarked) [GSK-429286A]	129.3%	126	3.32	
Cc1cnc(Nc2ccc(OCCN3CCCC3)cc2)nc1Nc1cccc(S(=O)(=O)NC(C)(C)C)c1 [TG-101348]				Emax (H9 cells [1]; [6]): 55.1%; AC50 (H9 cells [1]; [8]): 33.2 µM; Emax (H9 cells [1]; [7]): 67.3%
C=C(CO)C(=O)O[C@H]1CC(=C)[C@@H]2C[C@H](O)C(=C)[C@@H]2[C@H]2OC(=O)C(=C)[C@@H]21 [NCGC00168845-02]	21.8%	27.1	3.61	
COCC(=O)NC/C=C/c1ccc2ncnc(Nc3ccc(Oc4ccc(C)nc4)c(C)c3)c2c1 [CP-724714]				Emax (H9 cells [1]; [6]): 21.2%; AC50 (H9 cells [1]; [8]): 20.8 µM; Emax (H9 cells [1]; [7]): 23.5%
Cc1c[nH]c2ncnc(N3CCC(CN)(C(=O)Nc4cccc(OC(=O)N(C)C)c4)CC3)c12 [LX-7101]				Emax (H9 cells [1]; Homo sapiens, H9, 24 h; read-out: Efficacy (activity range between predicted activities at zero and infinite doses, Hill equation)): 21.6%; Emax (H9 cells [1]; Homo sapiens, H9, 24 h; read-out: Max (maximum activity value from all tested concentrations)): 53.7%; AC50 (H9 cells [1]; Homo sapiens; H9 cell survival, CellTiter-Glo 24 hours after seeding; read-out: AC50 (concentration at 50% efficacy)): 2.33 µM
O=C(NCc1cccc(O)c1)c1cc2cc(F)ccc2[nH]1 [KX1-004]	102.2%	103	3.29	
CCn1c(-c2nonc2N)nc2cncc(CNC3CCNCC3)c21 [SB-747651-A]	78.33% and 111.1%	35.5 and 68.7		
Cc1n[nH]c2ccc(-c3cncc(OC[C@@H](N)Cc4c[nH]c5ccccc45)c3)cc12 [A-443654]				Emax (H9 cells [1]; [6]): 39.8%; Emax (H9 cells [1]; [7]): 0%
Cl.O=c1[nH]ccc2cc(OC3CCNCC3)ccc12 [SAR407899 (hydrochloride)]	116.3%	112	2.93	
CCCCOc1c(C(=O)c2c(F)cc(C)cc2F)c[nH]c2nncc1-2 [BMS-265246]				Emax (H9 cells [1]; [6]): 42.8%; AC50 (H9 cells [1]; [8]): 1.18 µM; Emax (H9 cells [1]; [7]): 33.9%
N#CC[C@H](C1CCCC1)n1cc(-c2ncnc3[nH]ccc23)cn1 [Ruxolitinib, Freebase, Ruxolitinib]	87.05%	48		AC50 (H9 cells [1]; [8]): 10.4 µM
Cl.Cl.O=S(=O)(NCCNC/C=C/c1ccc(Br)cc1)c1cccc2cnccc12 [H-89]	25.95%	16.9	1.87	
O=C(NCc1ccccc1)c1csc(Nc2ccncn2)n1 [Thiazovivin]	88.3%	80.6	0.414	
Cl.Cl.Fc1ccccc1CNCc1ccc(-c2ccnc3[nH]ccc23)cc1 [OXA 06 dihydrochloride]	108.2%	110	0.736	
CC1(CCOC2OC(CO)C(O)C(O)C2O)CCC23OC2(C1)C(O)CC1C(C)(C(=O)O)CCCC13C (centres unmarked) [NCGC00380931-01]	24.96%	28	11.4	
CNc1ccc([N+](=O)[O-])c(Nc2ccc3[nH]ncc3c2)n1 [KRIBB11]	72.62%	62.1	0.585	

Source: patent US20210348119A1, “COMPOSITIONS AND METHODS FOR CELL CULTURE” (The United States of America as Represented By The …, priority 2018, published 2021)
